What was measured:
[1] = Cytotoxicity by the MTT method, Hela; type: cell-based; settings: human, HeLa cells (human cervical cancer cell line), 36 h incubation with compound
Method: (§1) The cytotoxic activity of compounds 1–3 and 5–8 against human cervical cancer cell lines (Hela), human hepatic carcinoma cell lines (BEL-7402), leukemia cell lines (K562), and human gastric cell lines (SGC-7901) was assayed by the MTT method ([Mosmann, 1983]; [Wang et al., 2013]). These cell lines were purchased from Shang Hai Cell Bank of Chinese Academy of Sciences. Hela, BEL-7402, K562, and SGC-7901 cell lines were cultured in RPMI-1640 with 10% FBS under a humidified atmosphere of 5% CO2 and 95% air at 37°C, and 198 μl of the cell suspension was plated in 96-well microtiter plates. After being incubated for 24 h, 2 μl of the test solutions in DMSO was added to each well and further incubated for 36 h. The MTT solution (20 μl, 5 mg/ml in IPMI-1640 medium) was then added to each well and further incubated for 4 h. Finally, the medium containing MTT (150 μl) was gently replaced by DMSO and pipetted to dissolve any formazan crystals formed. Absorbance was then determined on a Multiskan FC photometric microplate reader (Thermo Fisher Scientific) at 570 nm. Adriamycin was used as the positive control drug.

[2] = Cytotoxicity by the MTT method, BEL-7402; type: cell-based; settings: human, BEL-7042 (printed in table; BEL-7402 in text) cells, 36 h incubation with compound
Method: as §1

[3] = Cytotoxicity by the MTT method, K562; type: cell-based; settings: human, K562 cells (leukemia cell line), 36 h incubation with compound
Method: as §1

[4] = Cytotoxicity by the MTT method, SGC-7901; type: cell-based; settings: human, SGC-7901 cells (human gastric cell line), 36 h incubation with compound
Method: as §1

[5] = biological target: α-glucosidase (from baker's yeast); test: α-Glycosidase inhibitory activity (p-nitrophenyl α-D-glucopyranoside substrate); type: biochemical; settings: α-glucosidase 0.2 U/ml, phosphate buffer pH 6.8, pNPG substrate, 37°C 15 min, absorbance 405 nm
Method: A mixture including 25 μl of different compounds (final concentrations of 0.0625, 0.125, 0.25, 0.5, and 1.0 mM), 25 μl of α-glucosidase (0.2 U/ml, from baker’s yeast, Sigma), and 175 μl phosphate buffer (pH 6.8) was left to stand for 10 min at room temperature in a 96-well plate, and then 25 μl of 23.2 mM p-nitrophenyl α-D-glucopyranoside (Sigma-Aldrich) was added and further incubated at 37°C for 15 min. Finally, the absorbance was measured at 405 nm to determine the amount of p-nitrophenol cleaved by the enzyme using a Synergy H1 Hybrid Multi-Mode Microplate Reader (BioTek Instruments, Inc.). The control was prepared by adding phosphate buffer instead of the sample in the same way as the test. The blank was prepared by adding phosphate buffer instead of α-glucosidase using the same method.

Structure (SMILES) | IC50 at 36 h [1] [µM] | IC50 at 36 h [2] [µM] | IC50 at 36 h [3] [µM] | IC50 at 36 h [4] [µM] | IC50 [5] [µM]
COc1cccc2c1C(=O)c1c(O)c3c(c(O)c1C2=O)C[C@@](O)(C(=O)CO)C[C@@H]3O[C@H]1C[C@H](N)[C@H](O)[C@H](C)O1 [Adriamycin, reference compound] | 0.28 ± 0.01 | 0.47 ± 0.01 | 0.1 ± 0.01 | 0.22 ± 0.01 | 
CC(O)(CCC(=O)O)CCc1cc(C(=O)O)ccc1O (stereo not drawn) [Compound 1, cladoslide A] | > 100 | > 100 | 13.1 ± 0.08 | > 100 | 320 ± 10
COC(=O)CCC(C)(O)CCc1cc(C(=O)O)ccc1O (stereo not drawn) [Compound 2, cladoslide B] | > 100 | > 100 | > 100 | > 100 | > 1000
CC(C)C[C@H](NC(=O)c1nc(C(=O)O)cc2c1[nH]c1ccccc12)C(=O)O [Compound 3, cladospomine] | > 100 | > 100 | > 100 | > 100 | > 1000
CC(=O)NCC(=O)c1c[nH]c2ccccc12 [Compound 5, N-acetyl-β-oxotryptamine] | > 100 | > 100 | > 100 | > 100 | 170 ± 10
C[C@@H](O)CCCCC[C@H](O)[C@@H]1C=CC(=O)O1 [Compound 6, (4S,5S,11R)-iso-cladospolide B] | > 100 | > 100 | > 100 | > 100 | > 1000
C[C@H](O)CCCCC[C@H](O)[C@@H]1C=CC(=O)O1 [Compound 7, (4S,5S,11S)-iso-cladospolide B] | > 100 | > 100 | > 100 | > 100 | > 1000
C[C@@H](O)CCCCC[C@H](O)[C@H]1C=CC(=O)O1 [Compound 8, (4R,5S,11R)-iso-cladospolide B] | > 100 | > 100 | > 100 | > 100 | > 1000
